Source: patent US10695334B2, “Heteroaromatic carboxamide derivatives as plasma kallikrein inhibitors” (Boehringer Ingelheim International GmbH, priority 2018, dated 2020)
Structures can show the parent of a compound that is named as a salt.

How the values were obtained:
Human PKK = Human PKK (Homo sapiens (Human), UniProt P03952); experiment: Inhibition of PKK, endpoint assay (human PKK); type: biochemical; settings: substrate H-Pro-Phe-Arg-AMC, 1 h room temperature
Protocol: Subsequently, PPACK II (Calbiochem) was added as a stop solution to achieve a final concentration of 1 μM and fluorescence was measured using an Envision Reader (PerkinElmer) with the wavelength excitation setting of 355 nm and the wavelength emission setting of 460 nm.

human TK1 = human TK1 (Homo sapiens (Human), UniProt P06870); experiment: Inhibition of TK1 (Ki); type: biochemical; settings: column head prints IC50, text above the table says Ki values
Protocol: The ability of compounds of formula (I) to inhibit plasma kallikrein (PKK), Factor Xlla (FXIIa), Factor Xla (FXIa), Factor Xa (FXa), Factor Ila (alpha-thrombin; FIIa), plasmin, trypsin, tissue kallikrein 1 (TK1), Factor VIIa (FVIIa), or FVIIa complexed with Tissue Factor, phospholipids and CaCl2 (FVIIa/TF/PL/CaCl2) was determined using the following biochemical assays in assay buffer (100 mM Tris, 150 mM NaCL, adjusted to a pH of 7.8 with HCl, and containing 0.1% (w/v) BSA and 0.05% (v/v) Tween20) in the presence of 1% (v/v) DMSO: EVALUATION OF THE INHIBITION OF PKK USING AN ENDPOINT ASSAY Human PKK (0.01 U/mL; Enzyme Research Laboratories) or rat PKK (0.625 nM; produced in-house) was incubated for 1 h at room temperature with 0.10 μM fluorogenic substrate H-Pro-Phe-Arg-AMC (11295 from Bachem) and various concentrations of the test compound in assay buffer. Subsequently, PPACK II (Calbiochem) was added as a stop solution to achieve a final concentration of 1 μM and fluorescence was measured using an Envision Reader (PerkinElmer) with the wavelength excitation setting of 355 nm and the wavelength emission setting of 460 nm.
Prior to the assay, human TK1 (R&D Systems) was activated by incubation with human trypsin (Calbiochem) in a 1:10,000 ratio for 15 min at 37° C. For assaying TK1 inhibitory activity, activated TK1 (31.25 nM or 1 U/mL) was incubated at 24° C. with 0.1 mM fluorogenic substrate H-Pro-Phe-Arg-AMC (11295 from Bachem) and various concentrations of the test compound in assay buffer. Measurements were performed in a kinetic interval every 2nd minute for 16 min using a Spectramax M5 (Molecular Devices) with the following settings of the wavelength excitation of 350 nm and wavelength emission of 450 nm.
The average Vmax values for the time interval from 2 to 12 min after initiation of the assay (expressed as either delta OD/min for assays using a chromogenic substrate or delta RFU/min for assays using a fluorigenic substrate, respectively) were plotted versus the Log of the concentration in molar of the evaluated inhibitor compound. The pIC50 values were then fitted using a four-parametric fitting procedure using GraphPad Prism (version 6; GraphPad Software, Inc.). Respective Ki values were obtained by correction of the IC50 values for the respective KM value of the used substrate (see Table A for the obtained KM values of the used substrates) using the following formula: […]
Where the IC50 is in molar and the KM value in mM.

Human PKK, sequence (P03952 391-638): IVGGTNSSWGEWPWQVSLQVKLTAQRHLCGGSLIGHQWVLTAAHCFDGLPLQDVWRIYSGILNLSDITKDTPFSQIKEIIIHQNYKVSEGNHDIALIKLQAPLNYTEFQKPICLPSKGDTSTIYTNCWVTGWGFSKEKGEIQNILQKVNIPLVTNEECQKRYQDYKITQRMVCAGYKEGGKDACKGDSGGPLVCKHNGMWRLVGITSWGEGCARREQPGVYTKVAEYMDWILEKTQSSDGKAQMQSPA
Human PKK, sequence (P03952 20-390 partner): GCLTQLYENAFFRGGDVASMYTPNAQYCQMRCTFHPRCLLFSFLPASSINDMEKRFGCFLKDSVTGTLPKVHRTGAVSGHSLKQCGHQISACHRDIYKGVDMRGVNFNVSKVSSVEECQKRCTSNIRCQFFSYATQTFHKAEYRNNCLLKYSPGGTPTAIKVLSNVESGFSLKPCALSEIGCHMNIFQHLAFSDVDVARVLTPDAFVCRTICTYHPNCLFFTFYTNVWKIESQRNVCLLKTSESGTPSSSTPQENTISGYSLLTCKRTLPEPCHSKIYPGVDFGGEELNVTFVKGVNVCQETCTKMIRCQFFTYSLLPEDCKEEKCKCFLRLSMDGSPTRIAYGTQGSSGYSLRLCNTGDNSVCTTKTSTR
human TK1, sequence (P06870 25-262): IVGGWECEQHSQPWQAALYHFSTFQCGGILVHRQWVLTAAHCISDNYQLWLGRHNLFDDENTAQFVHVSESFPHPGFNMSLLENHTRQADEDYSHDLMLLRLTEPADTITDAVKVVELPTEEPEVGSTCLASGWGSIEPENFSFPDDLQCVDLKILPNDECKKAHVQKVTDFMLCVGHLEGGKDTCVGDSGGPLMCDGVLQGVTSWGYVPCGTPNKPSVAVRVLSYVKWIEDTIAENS

Row | IC50 (Human PKK) | IC50 (human TK1) | Compound
1 | 3 nM | > 10000 nM | Cc1nc(N2CC3CC3C2)ncc1Cn1cc(C(=O)N[C@@H]2CCc3c(C)n[nH]c32)c(C)n1 (stereo partly drawn) [Example 25, 1-[(2-{3-Azabicyclo[3.1.0]hexan-3-yl}-4-methyl-pyrimidin-5-yl)methyl]-3-methyl-N-[(6R)-3-methyl-1H,4H,5H,6H-cyclopenta[c]pyrazol-6-yl]-1H-pyrazole-4-carboxamide]
2 | 4 nM | > 10000 nM | Cc1nc(N2CCC3(CC3)C2)ccc1Cn1cc(C(=O)N[C@@H]2CCc3c2n[nH]c3C)cn1 [Example 45, 1-[(6-{5-Azaspiro[2.4]heptan-5-yl]-2-methylpyridin-3-yl)methyl]-N-[(6R)-3-methyl-2H,4H,5H,6H-cyclopenta[c]pyrazol-6-yl]-1H-pyrazole-4-carboxamide]
3 | 5 nM | > 10000 nM | Cc1nc(N2CCC3CC3C2)ccc1Cn1cc(C(=O)N[C@@H]2CCc3c2n[nH]c3C)cn1 (stereo partly drawn) [Example 48, 1-[(6-{3-Azabicyclo[4.1.0]heptan-3-yl}-2-methylpyridin-3-yl)methyl]-N-[(6R)-3-methyl-2H,4H,5H,6H-cyclopenta[c]pyrazol-6-yl]-1H-pyrazole-4-carboxamide]
4 | 13 nM |  | Cc1nc(N2CC(C(C)C)C2)ccc1Cn1cc(C(=O)N[C@@H]2CCc3c2n[nH]c3C)cn1 [Example 70, N-[(6R)-3-Methyl-2H,4H,5H,6H-cyclopenta[c]pyrazol-6-yl]-1-({2-methyl-6-[3-(propan-2-yl)azetidin-1-yl]pyridin-3-yl}lmethyl)-1H-pyrazole-4-carboxamide]
5 | 36 nM |  | Cc1nc(N2C[C@H]3COC[C@H]3C2)ccc1Cn1cc(C(=O)N[C@@H]2CCc3c2n[nH]c3C)cn1 [Example 72, 1-({6-[(3aR,6aS)-Hexahydro-1H-furo[3,4-c]pyrrol-5-yl]-2-methylpyridin-3-yl}methyl)-N-[(6R)-3-methyl-2H,4H,5H,6H-cyclopenta[c]pyrazol-6-yl]-1H-pyrazole-4-carboxamide]
6 | 17 nM |  | Cc1nc(N2CCC3(CCOC3)C2)ccc1Cn1cc(C(=O)N[C@@H]2CCc3c2n[nH]c3C)cn1 (stereo partly drawn) [Example 73, N-[(6R)-3-Methyl-2H,4H,5H,6H-cyclopenta[c]pyrazol-6-yl]-1-[(2-methyl-6-{2-oxa-7-azaspiro[4.4]nonan-7-yl}pyridin-3-yl)methyl]-1H-pyrazole-4-carboxamide]
7 | 38 nM |  | Cc1nc(N2CC(F)(C(F)(F)F)C2)ccc1Cn1cc(C(=O)N[C@@H]2CCc3c2n[nH]c3C)cn1 [Example 74, 1-({6-[3-Fluoro-3-(trifluoromethyl)azetidin-1-yl]-2-methylpyridin-3-yl}methyl)-N-[(6R)-3-methyl-2H,4H,5H,6H-cyclopenta[c]pyrazol-6-yl]-1H-pyrazole-4-carboxamide]
8 | 19 nM |  | Cc1nc(N2C[C@@H]3CC(F)(F)C[C@@H]3C2)ccc1Cn1cc(C(=O)N[C@@H]2CCc3c2n[nH]c3C)cn1 [Example 75, 1-({6-[(3aR,6aS)-5,5-Difluoro-octahydrocyclopenta[c]pyrrol-2-yl]-2-methylpyridin-3-yl}-methyl)-N-[(6R)-3-methyl-2H,4H,5H,6H-cyclopenta[c]pyrazol-6-yl]-1H-pyrazole-4-carboxamide]
9 | 572 nM |  | Cc1nc(N2CC3(CC(O)C3)C2)ccc1Cn1cc(C(=O)N[C@@H]2CCc3c2n[nH]c3C)cn1 [Example 76, 1-[(6-{6-Hydroxy-2-azaspiro[3.3]heptan-2-yl}-2-methylpyridin-3-yl)methyl]-N-[(6R)-3-methyl-2H,4H,5H,6H-cyclopenta[c]pyrazol-6-yl]-1H-pyrazole-4-carboxamide]
10 | 9 nM |  | Cc1nc(N2CCC3(C2)CC3(F)F)ccc1Cn1cc(C(=O)N[C@@H]2CCc3c2n[nH]c3C)cn1 (stereo partly drawn) [Example 78, 1-[(6-{1,1-Difluoro-5-azaspiro[2.4]heptan-5-yl}-2-methylpyridin-3-yl)methyl]-N-[(6R)-3-methyl-2H,4H,5H,6H-cyclopenta[c]pyrazol-6-yl]-1H-pyrazole-4-carboxamide]
11 | 9 nM |  | Cc1nc(N2CC3C(C2)C3(C)C)ccc1Cn1cc(C(=O)N[C@@H]2CCc3c2n[nH]c3C)cn1 (stereo partly drawn) [Example 80, 1-[(6-{6,6-Dimethyl-3-azabicyclo[3.1.0]hexan-3-yl]-2-methylpyridin-3-yl)methyl]-N-[(6R)-3-methyl-2H,4H,5H,6H-cyclopenta[c]pyrazol-6-yl]-1H-pyrazole-4-carboxamide]
12 | 161 nM |  | Cc1nc(N2CC(c3ccc(F)cc3)C2)ccc1Cn1cc(C(=O)N[C@@H]2CCc3c2n[nH]c3C)cn1 [Example 81, 1-({6-[3-(4-Fluorophenyl)azetidin-1-yl]-2-methylpyridin-3-yl}methyl)-N-[(6R)-3-methyl-2H,4H,5H,6H-cyclopenta[c]pyrazol-6-yl]-1H-pyrazole-4-carboxamide]
13 | 41 nM |  | Cc1nc(N2CC[C@](C)(O)C2)ccc1Cn1cc(C(=O)N[C@@H]2CCc3c2n[nH]c3C)cn1 [Example 83, 1-({6-[(3S)-3-Hydroxy-3-methylpyrrolidin-1-yl]-2-methylpyridin-3-yl}methyl)-N-[(6R)-3-methyl-2H,4H,5H,6H-cyclopenta[c]pyrazol-6-yl]-1H-pyrazole-4-carboxamide]
14 | 2 nM |  | Cc1nc(N2CC3C(C2)C3(F)F)ncc1Cn1cc(C(=O)N[C@@H]2CCc3c2n[nH]c3C)cn1 (stereo partly drawn) [Example 84, 1-[(2-{6,6-Difluoro-3-azabicyclo[3.1.0]hexan-3-yl}-4-methylpyrimidin-5-yl)methyl]-N-[(6R)-3-methyl-2H,4H,5H,6H-cyclopenta[c]pyrazol-6-yl]-1H-pyrazole-4-carboxamide, TFA salt]
15 | 4 nM |  | Cc1nc(N2CC3C(C2)C3(F)F)ncc1Cn1cc(C(=O)N[C@@H]2CCc3c(C)n[nH]c32)nn1 (stereo partly drawn) [Example 85, 1-[(2-{6,6-Difluoro-3-azabicyclo[3.1.0]hexan-3-yl}-4-methylpyrimidin-5-yl)methyl]-N-[(6R)-3-methyl-1H,4H,5H,6H-cyclopenta[c]pyrazol-6-yl]-1H-1,2,3-triazole-4-carboxamide]
16 | 3 nM |  | Cc1nc(N2CC3CC3C2)ncc1Cn1cnc(C(=O)N[C@@H]2CCc3c2n[nH]c3C)c1 (stereo partly drawn) [Example 91, 1-[(2-{3-Azabicyclo[3.1.0]hexan-3-yl}-4-methyl-pyrimidin-5-yl)methyl]-N-[(6R)-3-methyl-2H,4H,5H,6H-cyclopenta[c]pyrazol-6-yl]-1H-imidazole-4-carboxamide]
17 | 0.9 nM |  | Cc1nc(N2CC3CC3C2)ccc1Cn1cc(C(=O)N[C@@H]2CCc3c2n[nH]c3C)c(C(C)(C)O)n1 (stereo partly drawn) [Example 106, 1-[(6-{3-Azabicyclo[3.1.0]hexan-3-yl}-2-methylpyridin-3-yl)methyl]-3-(2-hydroxypropan-2-yl)-N-[(6R)-3-methy-2H,4H,5H,6H-cyclopenta[c]pyrazol-6-yl]-1H-pyrazole-4-carboxamide]
18 | 7 nM |  | Cc1nc(N2CC3CC3C2)ccc1Cn1cnc(C(=O)N[C@@H]2CCc3c2n[nH]c3C)n1 (stereo partly drawn) [Example 107, 1-[(6-{3-Azabicyclo[3.1.0]hexan-3-yl}-2-methylpyridin-3-yl)methyl]-N-[(6R)-3-methyl-2H,4H,5H,6H-cyclopenta[c]pyrazol-6-yl]-1H-1,2,4-triazole-3-carboxamide]

Row | Compound | IC50 (Human PKK) | IC50 (human TK1)
19 | Cc1nc(N2CC3(CC3)C2)ncc1Cn1cc(C(=O)N[C@@H]2CCc3c(C)n[nH]c32)c2cncnc21 [Example 33, 7-[(2-{5-Azaspiro[2.3]hexan-5-yl}-4-methyl-pyrimidin-5-yl)methyl]-N-[(6R)-3-methyl-1H,4H,5H,6H-cyclopenta[c]pyrazol-6-yl]-7H-pyrrolo[2,3-d]pyrimidine-5-carboxamide] | 3 nM | > 10000 nM
20 | Cc1nc(N2C[C@@H]3[C@@H](CF)[C@@H]3C2)ccc1Cn1cc(C(=O)N[C@@H]2CCc3c2n[nH]c3C)cn1 [Example 95, 1-({6-[(1R,5S,6R)-6-(Fluoromethyl)-3-azabicyclo[3.1.0]hexan-3-yl]-2-methylpyridin-3-yl}methyl)-N-[(6R)-3-methyl-2H,4H,5H,6H-cyclopenta[c]pyrazol-6-yl]-1H-pyrazole-4-carboxamide] | 4 nM | 
